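Compound exposure: 48 hours, 5 concentrations, 96-well plates. At the GI50, growth is halved.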 Active and inactive are the calls of the source. Rule as the data show it: active = GI50 up to about 1.1 µM and inactive = higher.
What was measured:
Experiment in all cases: inhibition of tumour cell growth, NCI panel, 48 h
[1] = tested on: NCI-H226
[2] = tested on: MDA-MB-435
[3] = tested on: UO-31
[4] = tested on: HCT-116
[5] = tested on: HCC 2998
[6] = tested on: CAKI-1
[7] = tested on: KM12
[8] = tested on: LOX IMVI
[9] = tested on: U-251
[10] = tested on: IGROV-1
[11] = tested on: MDA-MB-231
[12] = tested on: RPMI-8226
[13] = tested on: MCF7
[14] = tested on: DU-145
[15] = tested on: ACHN
[16] = tested on: M14
[17] = tested on: MDA-N
[18] = tested on: OVCAR-3
[19] = tested on: NCI-H522
[20] = tested on: Malme-3M

Measured: GI50

O=C1N2CCN=C2c2ccccc2C1(O)c1ccccc1 (stereo not drawn)
inactive: [1] > 100 µM | [2] > 100 µM | [3] > 100 µM | [4] > 100 µM | [5] > 100 µM | [6] > 100 µM | [7] > 100 µM | [8] > 100 µM | [9] > 100 µM | [10] > 100 µM | [11] > 100 µM | [12] > 100 µM | [13] > 100 µM | [14] > 100 µM | [15] > 100 µM | [16] > 100 µM | [17] > 100 µM

C=CCCCC1(C)CCNC1=S (stereo not drawn)
inactive: [18] > 100 µM | [19] > 100 µM | [2] > 100 µM | [3] > 100 µM | [4] > 100 µM | [5] > 100 µM | [6] > 100 µM | [9] > 100 µM | [10] > 100 µM | [11] > 100 µM | [12] > 100 µM | [13] > 100 µM | [14] > 100 µM | [15] > 100 µM | [16] > 100 µM | [17] > 100 µM

c1ccc(C2=NN(c3nc4ccccc4s3)C3(CCCCC3)N2)nc1
inactive: [18] 16.7 µM | [19] 26.5 µM | [1] 19.4 µM | [2] 23.4 µM | [3] 35.1 µM | [4] 26.4 µM | [6] 29.4 µM | [7] 22 µM | [8] 20.1 µM | [9] 20.4 µM | [10] 19.7 µM | [11] 21.6 µM | [20] 11.7 µM | [12] 16.1 µM | [13] 21.6 µM | [14] 35.7 µM | [15] 29.9 µM | [16] 21.4 µM | [17] 24.9 µM

O=C1CSC(c2ccccc2)N1c1ccc(-c2ccc(-n3c(-c4ccccc4)nc4ccccc4c3=O)cc2)cc1 (stereo not drawn)
inactive: [18] 46.5 µM | [19] 47.8 µM | [2] 49.8 µM | [3] 49.8 µM | [5] 34.8 µM | [6] > 100 µM | [7] 26.2 µM | [8] 50.7 µM | [9] 56.9 µM | [10] > 100 µM | [11] 40.9 µM | [20] 35.4 µM | [12] 36.8 µM | [13] 35.1 µM | [14] 85.1 µM | [15] 53 µM | [16] 50 µM | [17] 64.9 µM

COc1ccc(/C=C2\N=C3N(Cc4ccccc4)C=C(N)N3C2=O)cc1
inactive: [18] > 100 µM | [19] 49.1 µM | [1] 55 µM | [2] > 100 µM | [3] 46.6 µM | [4] > 100 µM | [5] > 100 µM | [6] > 100 µM | [7] > 100 µM | [8] > 100 µM | [9] 30.3 µM | [10] 69.3 µM | [11] 36.2 µM | [20] > 100 µM | [13] > 100 µM | [14] > 100 µM | [15] > 100 µM | [16] > 100 µM | [17] > 100 µM

CC1(C)CC(C)(C)C1=NNC(N)=O
inactive: [18] > 100 µM | [19] > 100 µM | [1] > 100 µM | [2] > 100 µM | [3] > 100 µM | [4] > 100 µM | [5] > 100 µM | [6] > 100 µM | [7] > 100 µM | [8] > 100 µM | [9] > 100 µM | [10] > 100 µM | [11] > 100 µM | [20] > 100 µM | [13] > 100 µM | [14] > 100 µM | [15] > 100 µM | [16] > 100 µM | [17] > 100 µM

COc1ccc(/C=N/n2c(-c3ccccc3)n[nH]c2=O)cc1
inactive: [18] > 100 µM | [1] > 100 µM | [2] > 100 µM | [3] 95.3 µM | [4] 74.5 µM | [5] > 100 µM | [6] > 100 µM | [7] 48.8 µM | [9] > 100 µM | [11] > 100 µM | [20] > 100 µM | [12] > 100 µM | [13] > 100 µM | [14] > 100 µM | [15] > 100 µM | [16] > 100 µM | [17] > 100 µM

C[C@H](CSC(=O)c1ccccc1)C(=O)N1c2ccccc2C[C@H]1C(=O)O
inactive: [18] > 100 µM | [19] 30.4 µM | [1] > 100 µM | [3] 86.3 µM | [4] 41.2 µM | [5] 91.8 µM | [6] > 100 µM | [7] > 10 µM | [9] > 100 µM | [10] > 100 µM | [11] > 100 µM | [13] 46 µM | [14] > 100 µM | [15] > 100 µM | [17] > 100 µM

COc1ccc(N2C(=O)C3CC4=CC(=O)C[C@H]4[C@H]32)cc1 (stereo partly drawn)
inactive: [18] 57.7 µM | [1] 42.8 µM | [2] 22.9 µM | [3] 37.2 µM | [4] 20.7 µM | [5] 45.1 µM | [6] 23.4 µM | [7] 44 µM | [8] 53.1 µM | [9] 67.9 µM | [11] > 100 µM | [12] 59.8 µM | [13] 67.6 µM | [14] 75.9 µM | [15] 53.7 µM | [16] > 100 µM | [17] 18.5 µM

O=C(CNS(=O)(=O)Cc1ccccc1)NNc1ccccc1
inactive: [18] 49.4 µM | [1] > 100 µM | [2] 6.95 µM | [3] > 100 µM | [4] > 100 µM | [5] > 100 µM | [6] 5.6 µM | [7] 6.1 µM | [8] 1.85 µM | [9] > 100 µM | [10] 72.8 µM | [11] > 100 µM | [20] > 100 µM | [12] 18.4 µM | [13] > 74.8 µM | [14] > 100 µM | [15] > 100 µM | [16] > 63.7 µM | [17] 15.7 µM

CC1(C)CC(=O)c2c(nc3ccc4ccccc4c3c2-c2ccc(NC(=O)CCC(=O)Nc3ccc(-c4c5c(nc6ccc7ccccc7c46)CC(C)(C)CC5=O)cc3)cc2)C1
inactive: [18] > 100 µM | [19] > 100 µM | [1] > 100 µM | [2] > 100 µM | [3] > 100 µM | [4] > 100 µM | [6] > 100 µM | [7] > 100 µM | [8] > 100 µM | [9] > 100 µM | [10] > 100 µM | [11] > 100 µM | [12] > 100 µM | [13] > 100 µM | [14] > 100 µM | [15] > 100 µM | [16] > 100 µM | [17] > 100 µM

OC1(c2ccccc2)CSc2ncnn21 (stereo not drawn)
inactive: [18] > 100 µM | [19] > 100 µM | [1] > 100 µM | [2] > 100 µM | [3] > 100 µM | [4] > 100 µM | [5] > 100 µM | [6] > 100 µM | [7] > 100 µM | [8] > 100 µM | [9] > 100 µM | [10] > 100 µM | [11] > 100 µM | [20] > 100 µM | [13] > 100 µM | [14] 41.1 µM | [15] > 100 µM | [16] > 100 µM | [17] > 100 µM

Cc1csc(NNC(N)=O)n1
inactive: [18] > 100 µM | [19] > 100 µM | [1] > 100 µM | [2] > 100 µM | [3] > 100 µM | [4] > 100 µM | [5] > 100 µM | [6] > 100 µM | [7] > 100 µM | [8] > 100 µM | [9] > 100 µM | [10] > 100 µM | [11] > 100 µM | [13] > 100 µM | [14] > 100 µM | [15] > 100 µM | [16] > 100 µM | [17] > 100 µM

Clc1ccc(-c2cc3nc4ccccc4nc3o2)cc1
inactive: [18] > 100 µM | [1] > 100 µM | [2] > 100 µM | [3] > 100 µM | [4] > 100 µM | [5] > 100 µM | [6] > 100 µM | [7] > 100 µM | [8] > 100 µM | [9] 29.9 µM | [10] 62.8 µM | [11] > 100 µM | [20] > 100 µM | [12] > 100 µM | [13] 64.4 µM | [14] > 100 µM | [15] 25.4 µM | [16] > 100 µM | [17] > 100 µM

COC1=C2C=[N+](C)C3C(=C2C=CC1OC)Cc1cc2c(cc13)OCO2 (stereo not drawn)
inactive: [18] 3.75 µM | [19] 4.32 µM | [1] 15.4 µM | [2] 15.4 µM | [3] 13.7 µM | [4] 13.8 µM | [6] 15.8 µM | [7] 2.8 µM | [8] 16.3 µM | [9] 9.42 µM | [10] > 10 µM | [11] 14.6 µM | [20] 3.88 µM | [12] 2.53 µM | [13] 9.77 µM | [14] 14.5 µM | [16] 15.5 µM | [17] 11.4 µM

— ChEMBL document CHEMBL1201862, “PubChem BioAssay data set” (2004)
